Experiments:
[1] = tested on: breast cancer cell line MCF-7; experiment: tests as in Examples 1, 2 and 3; assay type: cell-based
Procedure: (§1) The tests were carried out on a breast cancer cell line (MCF-7, BSMZ), a large bowel cancer cell line (DLD, LOVO), a thyroid gland cancer cell line (SW1736), and a pancreas cancer cell line (PA-1) in the same ways as in Examples 1, 2, and 3. As the result, the cell mortality began with about 1.5 mg/ml of BA to increase in proportion to the BA concentration, same as adhesiveness thereof.

[2] = tested on: pancreas cancer cell line PA-1; experiment: tests as in Examples 1, 2 and 3; assay type: cell-based
Procedure: as §1

[3] = tested on: breast cancer cell line BSMZ; experiment: tests as in Examples 1, 2 and 3; assay type: cell-based
Procedure: as §1

[4] = tested on: large bowel cancer cell line DLD; experiment: tests as in Examples 1, 2 and 3; assay type: cell-based
Procedure: as §1

[5] = tested on: thyroid gland cancer cell line SW1736; experiment: tests as in Examples 1, 2 and 3; assay type: cell-based
Procedure: as §1

[6] = tested on: large bowel cancer cell line LOVO; experiment: tests as in Examples 1, 2 and 3; assay type: cell-based
Procedure: as §1

[7] = in body; cited from earlier work
[8] = tested on: stomach cancer cell line (STKM); experiment: cell adhesiveness test by the calorimetric assay; assay type: cell-based; conditions: 37° C. for 48 hrs, OD 600 nm, FIG. 1
Text: The calorimetric assay as described in the examples below can be employed for assaying the adhesiveness of a cell, and the thymidine incorporate assay can be employed for assaying the mortality of a cell. These two assays are general methods for determining the behavior of a tumor cell. For the colorimetric assay, see Enhancer sequences of DF3 gene regulate expression of the herpes simplex virus thymidine kinase gene and confer sensitivity of human breast cancer cell to ganciclovir: Manome Y, Abe M, Hagen F. M, Fine A. H, and Kufe W. D, Cancer Research 54:5408-5413, 1994. For the thymidine incorporate assay, see Meneki Jikken Sousa-ho II (edited by S. Uda, S. Konda, Y. Honsho, T, Hamaoka, 773-774, Nanko-do, 1995).
(§2) To 1×10^6 cells of a stomach cancer cell line (STKM), BA was added by such proportional concentrations as 1, 1.5, 2.0, 2.5 and 5 mg/ml. An equal amount of the physiological saline was added to prepare a control sample. All the samples were incubated at 37° C. for 48 hrs. The shape of the cell was studied through an inverted microscope. The adhesiveness and the mortality of the cell were measured by the calorimetric assay and the thymidine incorporate assay.
(1) The Cell Adhesiveness Test by the Calorimetric Assay:
100% gulutalaldehyde was added to each of samples by a ¼ the medium amount (250 μl), then left to stand at a room temperature for 15 min. […]

[9] = tested on: Escherichia coli; conditions: on Escherichia coli; cited from earlier work
[10] = tested on: Sarmonella typhii; conditions: on Sarmonella typhii; cited from earlier work
[11] = tested on: Staphylococcus aureus; conditions: on Staphylococcus aureus; cited from earlier work
[12] = tested on: stomach cancer cell line (STKM) tumor; experiment: antitumor effect on STKM tumor in nude mouse in vivo
Procedure: 1×10^8 cells of a stomach cancer cell line (STKM) were subcutaneously injected in the back of a nude mouse. When a tumor grew to have a diameter of 5 mm or more after 8 weeks, BA was administrated to the tumor or around the tumor by 4 mg/0.5 ml twice a week for 4 weeks. For a control, 0.5 ml of physiological saline was locally injected to the tumor. The tumor diameter was measured. The tumor tissue was taken out and subjected to the H-E dyeing to observe with a microscope.
A stomach cancer cell line (STKM) was implanted in a living body. When a tumor grew to have a diameter of 5 mm or more, BA was administrated by 4 mg/0.5 ml twice a week for 4 weeks. […] The tumor diameter decreased to the ½ or less after the 32 mg administration (4 weeks).
FIGS. 4 and 5 show the images obtained by extracting the tumor after 4 weeks of administration, fixing with 10% formalin, slicing to 3 μm pieces and H-E dyeing. […] The above result confirms that the stomach cancer cell arrived at death in vivo.

[13] = tested on: STKM (a stomach cancer cell line); experiment: DNA Laddering assay; assay type: cell-based; conditions: 2 ml of BA of 2.5 mg/ml, 48 hrs, FIG. 6
Text: (§3) The DNA Laddering assay, the TUNEL assay and the Caspase assay as described in the examples below are general methods for determining whether a cell arrives at death through an apoptosis route or not. For the DNA Laddering assay, see Shin Apoptosis Jikken-ho (edited by K. Tsujimoto, S. Tone, T. Yamada, 59-66, Yodosya, 1999). For the TUNEL assay, see Shin Apoptosis Jikken-ho (edited by K. Tsujimoto, S. Tone, T. Yamada, 67-74, Yodosya, 1999). For the Caspase assay, see Shin Apoptosis Jikken-ho (edited by K. Tsujimoto, S. Tone, T. Yamada, 198-200, Yodosya, 1999).
(§4) For a cell group capable of being guided to the cell mortality, it was determined that through which route, apoptosis or necrosis, the cell arrived at death. Namely, BA was added to the cell at a certain concentration or more necessary to guide to the cell mortality, and the cell was collected after confirmation of the change in shape. Then, the DNA Laddering assay with gel electrophoresis to investigate the DNA fragmentation and the TUNEL assay with the cell dyeing were carried out.
2 ml of BA of 2.5 mg/ml was added to 1.5×10^6 cells (STKM) followed by incubating at 37° C. for 48 hrs to collect the cells. The collected cells were centrifuged and added in 100 μl of lysis buffer (10 mM EDTA, 50 mM Tris-HCl, pH 8.0, 0.5% SDS, 0.5 mg/ml Proteinase K), followed by incubating at […] for 3 hrs. […]

[14] = tested on: Caspase-3; experiment: Caspase-3 activity assay; assay type: cell-based; conditions: 2 ml of BA of 2.5 mg/ml
Text: as §3
(§5) To 1.5×10^6 cells, 2 ml of BA of 2.5 mg/ml for a test sample, the equal amount of physiological saline for a negative control sample, and Arac 1×10^−5M (Kirosaito, Nippon Shinyaku) for a positive control sample were added respectively, each of which was followed by incubating at 37° C. for 48 hrs to recover the cells. Then, the CPP32/Caspase-3, -8 Colorimetric Protease Assay kit (MBL Co.) was applied to the samples. The application was briefly as follows: • 1. […]

[15] = tested on: STKM cells; experiment: TUNEL assay; assay type: cell-based; conditions: 2 ml of BA of 2.5 mg/ml, 48 hrs, FIG. 7
Text: as §3, §4
2 ml of BA of 2.5 mg/ml was added to 1.5×10^5 cells (STKM) on a slide glass, followed by incubating at 37° C. for 48 hrs and fixing with 1% paraformaldehyde in PBS at a room temperature for 10 min. For a control, the equal amount of physiological saline was added. […]

[16] = tested on: stomach cancer cell line (STKM); experiment: cell shape by inverted microscope in vitro; assay type: cell-based; conditions: BA 2.5 mg/ml, 37° C. for 48 hrs, FIG. 3
Procedure: as §2
One ml of BA of 2.5 mg/ml was added to 1×10^6 cells followed by incubating at 37° C. for 48 hrs to get the image as shown in FIG. 3. The equal amount of physiological saline was similarly added, followed by incubating in the same way to get the control. […] The nucleus also got remarkably blackened. The above result confirms that a stomach cancer cell arrived at death in vitro.

[17] = tested on: Caspase-8; experiment: Caspase-8 activity assay; assay type: cell-based; conditions: 2 ml of BA of 2.5 mg/ml, 48 hrs
Text: as §3, §5

[18] = tested on: umbilical cord cell line (Huvec); experiment: colorimetric assay on a normal cell; assay type: cell-based; conditions: FIG. 10
Procedure: (§6) 100% gulutalaldehyde was added to each of samples by a ¼ the medium amount (250 μl), then left to stand at a room temperature for 15 min. After washing, 250 μl of 0.05% Methylene Blue in PBS was added and then left to stand at a room temperature for 15 min. After washing, 250 μl of 0.33N HCl was added, followed by leaving to stand at a room temperature for 15 min and measuring the OD (600 nm).
(§7) In order to confirm that the BA administration effects specifically a cancer cell to arrive at death, the colorimetric assay was carried out on a normal cell, that is, an umbilical cord cell line (Huvec) and a lung cell line (WI38), in the same way as in Example 1. The stomach cancer cell line (STKM) was used for a control.

[19] = tested on: lung cell line (WI38); experiment: colorimetric assay on a normal cell; assay type: cell-based; conditions: FIG. 10
Procedure: as §6, §7

OCc1ccccc1 [BA, Benzyl alcohol]
BA concentration at which cell mortality begins to increase (same as adhesiveness) [1]: about 1.5 mg/ml
route of cell death [1]: did not arrive at death through an apoptosis route, but through a necrosis one
BA concentration at which cell mortality begins to increase (same as adhesiveness) [2]: about 1.5 mg/ml
route of cell death [2]: did not arrive at death through an apoptosis route, but through a necrosis one
BA concentration at which cell mortality begins to increase (same as adhesiveness) [3]: about 1.5 mg/ml
route of cell death [3]: did not arrive at death through an apoptosis route, but through a necrosis one
BA concentration at which cell mortality begins to increase (same as adhesiveness) [4]: about 1.5 mg/ml
route of cell death [4]: did not arrive at death through an apoptosis route, but through a necrosis one
BA concentration at which cell mortality begins to increase (same as adhesiveness) [5]: about 1.5 mg/ml
route of cell death [5]: did not arrive at death through an apoptosis route, but through a necrosis one
BA concentration at which cell mortality begins to increase (same as adhesiveness) [6]: about 1.5 mg/ml
route of cell death [6]: did not arrive at death through an apoptosis route, but through a necrosis one
metabolism and excretion [7]: converted to benzoic acid in body and excreted as hippuric acid
BA concentration at which cell adhesiveness begins to decrease [8]: about 1.5 mg/ml
phenol coefficient [9]: 0.6
phenol coefficient [10]: 0.4
phenol coefficient [11]: 0.5
tumor diameter compared with the control ([12]; nude mouse, 4 mg/0.5 ml twice a week to or around the tumor, 16 mg administration (2 weeks)): contracted in diameter compared with the control
tumor diameter decrease ([12]; nude mouse, 4 mg/0.5 ml twice a week to or around the tumor, after the 32 mg administration (4 weeks)): ½
H-E dyed tumor tissue image ([12]; tumor extracted after 4 weeks of administration, FIG. 5): cells were scattered sparsely with the swollen cytoplasm, appearance of the inclusion bodies and contraction of the nucleus
DNA laddering [13]: No laddering was recognized
Caspase-3 activity ([14]; 37° C. for 48 hrs, FIG. 8): 45.4 RFI/well/Hr
Caspase-3 activity compared with positive control (Arac) ([14]; 48 hrs, p<0.001): significantly lower than that of the positive control
Digoxigenin dyeing in the nucleus (TUNEL) [15]: no Digoxigenin dyeing image in the nucleus
cell shape [16]: cell shape changed from a spindle to a circle and got swollen
Caspase-8 activity compared with positive control (Arac) ([17]; FIG. 9): significantly lower than that of the positive control
Caspase activity compared with negative control (physiological saline) ([17]; FIGS. 8, 9): almost equal to that of the negative control
cell death effect compared to STKM [18]: lower effect compared to the STKM
resistance to BA compared with Huvec [19]: more resistant to BA than the Huvec
cell death effect compared to STKM ([19]; colorimetric assay): lower effect compared to the STKM

Reference: US20050075315A1, “Antitumor agent” (FUSO PHARMACEUTICAL INDUSTRIES, LTD, priority 2002, published 2005)
